Values after ≈ are worked out from the molar mass of the structure shown.
How the values were obtained:
Candida albicans = experiment: Antifungal activity against Candida albicans after 48 hrs by microbroth dilution technique; assay type: functional
Cryptococcus neoformans = experiment: Antifungal activity against Cryptococcus neoformans after 72 hrs by microbroth dilution technique; assay type: functional
[1] = system: Trichophyton mentagrophytes; experiment: Antifungal activity against Trichophyton mentagrophytes after 96 hrs by microbroth dilution technique; assay type: functional
Candida parapsilosis = experiment: Antifungal activity against Candida parapsilosis after 48 hrs by microbroth dilution technique; assay type: functional
Sporothrix schenckii = experiment: Antifungal activity against Sporothrix schenckii after 72 hrs by microbroth dilution technique; assay type: functional
Aspergillus fumigatus = experiment: Antifungal activity against Aspergillus fumigatus after 72 hrs by microbroth dilution technique; assay type: functional
L929 [2] = experiment: Cytotoxicity against mouse L929 cells up to 3.12 ug/ml after 24 hrs using Giemsa staining by phase contrast microscopy; assay type: cell-based; conditions: l929, 24 h
L929 [3] = experiment: Cytotoxicity against mouse L929 cells at >3.12 ug/ml after 24 hrs using Giemsa staining by phase contrast microscopy; assay type: cell-based; conditions: l929, 24 h
[4] = Candida albicans, 48 h, read-out: MIC
[5] = Cryptococcus neoformans, 72 h, read-out: MIC
[6] = Trichophyton mentagrophytes, 96 h, read-out: MIC
[7] = Lodderomyces parapsilosis, 48 h, read-out: MIC
[8] = Sporothrix schenckii, 72 h, read-out: MIC
[9] = Aspergillus fumigatus, 72 h, read-out: MIC

| Structure (SMILES) | MIC (Candida albicans; [4]) | MIC (Cryptococcus neoformans; [5]) | MIC [1, 6] | MIC (Candida parapsilosis; [7]) | MIC (Sporothrix schenckii; [8]) | MIC (Aspergillus fumigatus; [9]) | MIC (Candida albicans) | MIC (Sporothrix schenckii) | Activity (L929 [2]) | Activity (L929 [3]) | MIC [1] | MIC (Candida parapsilosis) | MIC (Aspergillus fumigatus) | MIC (Cryptococcus neoformans) |
| --- | --- | --- | --- | --- | --- | --- | --- | --- | --- | --- | --- | --- | --- | --- |
| CCCCCCc1cn(C[C@@](O)(Cn2cncn2)c2ccc(F)cc2F)nn1 | 0.0225 µg/mL (≈ 0.0576 µM) | 50 µg/mL (≈ 128 µM) | 6.25 µg/mL (≈ 16 µM) | 0.19 µg/mL (≈ 0.487 µM) | 0.78 µg/mL (≈ 2 µM) | 50 µg/mL (≈ 128 µM) |  |  |  |  |  |  |  |  |
| CCCCCCc1cn(C[C@](O)(Cn2cncn2)c2ccc(F)cc2F)nn1 | 50 µg/mL (≈ 128 µM) | 50 µg/mL (≈ 128 µM) | 50 µg/mL (≈ 128 µM) | > 50 µg/mL | 50 µg/mL (≈ 128 µM) | > 50 µg/mL |  |  |  |  |  |  |  |  |
| CCCCCCCCn1nncc1CC(O)(Cn1cncn1)c1ccc(F)cc1F (racemic) | 0.39 µg/mL (≈ 0.932 µM) | 50 µg/mL (≈ 119 µM) | 50 µg/mL (≈ 119 µM) | 50 µg/mL (≈ 119 µM) | 6.25 µg/mL (≈ 14.9 µM) | > 50 µg/mL |  |  |  |  |  |  |  |  |
| CCCCCCc1cnnn1CC(O)(Cn1cncn1)c1ccc(F)cc1F (racemic) |  | 50 µg/mL (≈ 128 µM) | 50 µg/mL (≈ 128 µM) | > 50 µg/mL |  | 25 µg/mL (≈ 64 µM) | 0.078 µg/mL (≈ 0.2 µM) | 3.12 µg/mL (≈ 7.99 µM) |  |  |  |  |  |  |
| CCCCCCCCn1cc(CC(O)(Cn2cncn2)c2ccc(F)cc2F)nn1 (racemic) |  | 25 µg/mL (≈ 59.7 µM) |  |  |  |  | 0.007 µg/mL (≈ 0.0167 µM) | 0.045 µg/mL (≈ 0.108 µM) | Non-toxic | Toxic | 0.39 µg/mL (≈ 0.932 µM) | 0.0112 µg/mL (≈ 0.0268 µM) | 3.12 µg/mL (≈ 7.46 µM) |  |
| CCCCCCc1cn(CC(O)(Cn2cncn2)c2ccc(F)cc2F)nn1 (racemic) | 0.09 µg/mL (≈ 0.231 µM) | 25 µg/mL (≈ 64 µM) | 12.5 µg/mL (≈ 32 µM) | 0.39 µg/mL (≈ 0.999 µM) | 0.78 µg/mL (≈ 2 µM) | 25 µg/mL (≈ 64 µM) |  |  |  |  |  |  |  |  |
| CCCCCCCCn1cc(CC(O)(Cn2cncn2)c2ccc(F)cc2F)nn1 (stereo in doubt; 2A) |  |  |  |  |  |  | 0.0011 µg/mL (≈ 0.00263 µM) | 0.0225 µg/mL (≈ 0.0538 µM) |  |  | 0.19 µg/mL (≈ 0.454 µM) | 0.0011 µg/mL (≈ 0.00263 µM) |  |  |
| CCCCCCCCn1cc(CC(O)(Cn2cncn2)c2ccc(F)cc2F)nn1 (stereo in doubt; 2B) |  |  |  |  |  |  | 12.5 µg/mL (≈ 29.9 µM) | 12.5 µg/mL (≈ 29.9 µM) |  |  | 25 µg/mL (≈ 59.7 µM) | 50 µg/mL (≈ 119 µM) | 50 µg/mL (≈ 119 µM) | 25 µg/mL (≈ 59.7 µM) |
| CCCCCCc1cnnn1CC(O)(Cn1cncn1)c1ccc(F)cc1F (stereo in doubt; 9A) |  |  |  |  |  |  | 0.039 µg/mL (≈ 0.0999 µM) | 1.56 µg/mL (≈ 4 µM) |  |  |  | 50 µg/mL (≈ 128 µM) | >50 µg/mL | 50 µg/mL (≈ 128 µM) |
| CCCCCCc1cnnn1CC(O)(Cn1cncn1)c1ccc(F)cc1F (stereo in doubt; 9B) |  |  |  |  |  |  | >50 µg/mL | >50 µg/mL |  |  | 50 µg/mL (≈ 128 µM) |  |  | >50 µg/mL |
| C[C@@H]1[C@H](O)[C@@H](C)/C=C/C=C/C=C/C=C/C=C/C=C/C=C/[C@H](O[C@@H]2O[C@H](C)[C@@H](O)[C@H](N)[C@@H]2O)C[C@@H]2O[C@](O)(C[C@@H](O)C[C@@H](O)[C@H](O)CC[C@@H](O)C[C@@H](O)CC(=O)O[C@H]1C)C[C@H](O)[C@H]2C(=O)O [AMPHOTERICIN B] | 0.12 µg/mL (≈ 0.13 µM) | 0.06 µg/mL (≈ 0.0649 µM) | 0.12 µg/mL (≈ 0.13 µM) | 0.12 µg/mL (≈ 0.13 µM) | 0.12 µg/mL (≈ 0.13 µM) | 0.5 µg/mL (≈ 0.541 µM) |  |  |  |  |  |  |  |  |
| OC(Cn1cncn1)(Cn1cncn1)c1ccc(F)cc1F [FLUCONAZOLE] | 0.5 µg/mL (≈ 1.63 µM) | 1 µg/mL (≈ 3.27 µM) | 1 µg/mL (≈ 3.27 µM) | 1 µg/mL (≈ 3.27 µM) | 2 µg/mL (≈ 6.53 µM) | 2 µg/mL (≈ 6.53 µM) |  |  |  |  |  |  |  |  |

Reference: ChEMBL document CHEMBL3217659, “Synthesis and antifungal activity of 1,5-disubstituted-1,2,3-triazole containing fluconazole analogues” (Medchemcomm, 2012)
